Legend:
Human recombinant SIRT2 = target: T1, Human recombinant SIRT2 (Homo sapiens, UniProt Q8IXJ6); assay: SIRT2 deacetylation assay; format: biochemical; details: increasing resveratrol; 25 μM Fluor de Lys-SIRT2, 25 μM NAD+, 20 min 37° C.
T1 sequence (Q8IXJ6 1-389): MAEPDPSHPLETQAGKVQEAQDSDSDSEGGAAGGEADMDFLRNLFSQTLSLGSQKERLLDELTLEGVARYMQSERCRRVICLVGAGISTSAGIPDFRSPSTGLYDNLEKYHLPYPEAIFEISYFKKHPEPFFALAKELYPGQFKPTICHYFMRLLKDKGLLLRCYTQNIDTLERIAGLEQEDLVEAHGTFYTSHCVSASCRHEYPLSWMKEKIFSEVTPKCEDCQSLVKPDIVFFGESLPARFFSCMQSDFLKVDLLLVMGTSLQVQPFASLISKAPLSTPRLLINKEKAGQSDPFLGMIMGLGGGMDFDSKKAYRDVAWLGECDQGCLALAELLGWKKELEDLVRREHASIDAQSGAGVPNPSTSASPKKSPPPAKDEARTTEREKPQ
Description: Yeast Sir2 and human SIRT1 are very homologous and differ from human SIRT2 by the addition of an N-terminal domain that is absent in SIRT2. […] Thus, based on the difference in structure of SIRT1 and SIRT2, i.e., the absence of an N-terminal domain (see FIG. 8), it is believed that the N-terminal domain of SIRT1 and Sir2 is necessary for activation by the compounds described herein. In particular, it is likely that the activator compounds described herein interact with the N-terminal portion of sirtuins. The N-terminal portion of SIRT1 that is necessary for the action of the compounds is from about amino acid 1 to about amino acid 176, and that of Sir2 is from about amino acid 1 to about amino acid 175.

[1] = system: acetylated K382 of p53 in U2OS osteosarcoma cells; assay: p53 Ac-K382 Western blot after UV radiation; format: cell-based, human
Method: FdL (200 μM) is added to growth media and cells incubated for 1-3 hours to allow FdL to enter the cells and the lysine-deacetylated product (deAc-FdL) to accumulate intracellularly. Cells are lysed with detergent in the presence of 1 μM TSA, 1 mM nicotinamide. […] Cells were grown adherently in DMEM/10% FCS and treated for 1 hour with 200 μM FdL, 1 μM TSA and either vehicle (0.5% final DMSO, Control) or 500 μM of the indicated compound. Intracellular accumulation of deAc-FdL was then determined as described briefly in a. […] Lysates were prepared and analyzed as above.

[2] = system: thoracic spinal cord of EAE SJL/J mice; assay: EAE spinal cord white matter damage; format: in vivo, mouse
Description: At day 40 post-immunization, mice from each group are sacrificed with an overdose of ketamine/xylazine. Spinal cords are dissected, fixed in 10% buffered formalin, and embedded in paraffin. Five micron thick sections are stained with Hematoxylin and Eosin (H&E) and Luxol Fast Blue (LFB) to assess myelin loss. Bielshowesky's silver impregnation is used to evaluate axonal integrity. To asses the amount of axonal loss, paraffin sections are exposed to monoclonal antibodies against mouse non-phosphorylated neurofilament H (Clone SMI-32, Stemberger Monoclonals, Baltimore, USA) and monoclonal antibodies against APP (Clone 22C11, Chemicon). SMI-32 is detected with a Cy3-labeled antibody and visualized by fluorescence microscopy. Anti-APP antibodies are detected by incubation with ColonoPAP, and APP-positive axons are visualized with 3,3′-diaminobenzidine (DAB).
The percentage of the spinal cord showing damage was determined in the cervical, thoracic and lumbar cord. At each level, regions in the 1) dorsal columns and 2) the lateral and ventral white matter tracts containing damaged fibers was circumscribed on photomontages (final magnification ×100) of the entire spinal cord. Damaged areas in each of the two regions were measured using a SummaSketch III (Summagraphics, Seymour, Conn.) digitizing tablet and BIOQUANT Classic 95 software (R&M Biometrics, Nashville, Tenn.). Measurements were also be made of the total area (damaged and nondamaged) of the 1) dorsal columns and 2) the lateral and ventral columns. For each section (one section per animal), the cumulative percent lesion areas were calculated for each region (dorsal column, lateral and ventral columns).

Human 293 = assay: Survival of 293 cells; details: 50 micromolar
Description: The number of live cells each time point was counted using a Coulter counter.

D. melanogaster = D. melanogaster lifespan; format: in vivo
Method: Females (a) and males (b) with loss-of-function genotype dSir2^4.5/dSir2^5.26. Females (c) and males (d) with strong hypomorphic genotype dSir2^17/dSir2^KG00871.
Survival assays were conducted independently with adult D. melanogaster in two laboratories. In the first laboratory, all trials used an yw marked wild-type strain. Larvae were reared on standard cornmeal-sugar-yeast (CSY) agar diet (cornmeal 5%, sucrose 10.5%, SAF yeast 2%, and agar 0.7%). Newly eclosed adults were placed in 1 L demography cages with approximately 75 males and 75 females. Three to four replicate 1 L demography cages were used for each treatment group in each trial. Every two days, dead flies were removed and scored, and food vials were replenished. Food vials contained cornmeal-sugar-yeast diet with SAF yeast as either 2% or 3% by weight. Test compounds in 100 μl of EtOH (or blank EtOH in controls) were mixed into melted aliquots of the adult food media to make a final concentration of 0, 10 or 100 μM. Fresh stock solutions and adult media were prepared weekly. In the second laboratory, lifespan trials were conducted with the wild type strain Canton-S, dSir2^4.5 and dSir2^5.26 (S. Smolik, University of Oregon), dSir2^17 (S. Astrom, Stockholm University, Sweden), and dSir2^KG00871 (Drosophila Stock Center, Bloomington, Ind.). Larvae for all tests were reared on standard cornmeal-sugar-yeast diet. Newly eclosed adults were incubated in plastic shell vials containing 5 ml of 15% sugar-yeast diet (15% SY) or 5% sugar-yeast (5% SY) diet (15% SY: 15% yeast, 15% sucrose, 2% agar; 5% SY: 5% yeast, 5% sucrose, 2% agar as per Ref. ^20). In all trials, ˜20 males with ˜20 females were placed into each of 10 vials/treatment group. Every two days, flies were passed into new vials and dead flies were counted. […] Final compound concentrations were 0, 10, 100 or 200 μM. Fresh stock solution and adult media was prepared weekly.

SMILES: Oc1ccc(/C=C/c2cc(O)cc(O)c2)cc1 [Resveratrol, 3,5,4′-Trihydroxy-trans-stilbene]
- SIRT2 activity (Human recombinant SIRT2): decrease SIRT2 activity
- level of Ac-K382 of p53 ([1]; 0.5 μM resveratrol, 4 hours pre-treatment, UV): marked decrease in the level of Ac-K382
- level of Ac-K382 of p53 ([1]; >50 μM resveratrol): the effect was reversed
- degree of damage in dorsal, lateral and ventral white matter ([2]; resveratrol 200 mg/kg): slightly increased, albeit not significantly
- reduction of degree of damage in dorsal, lateral and ventral white matter ([2]; resveratrol 400 mg/kg, significant): approximately 40%
- Survival of 293 cells (Human 293; 0 h): 100%
- Survival of 293 cells (Human 293; 48 h): 5%
- Survival of 293 cells (Human 293; 96 h): 0%
- increased lifespan (maximum) (D. melanogaster; Canton-S/dSir2^KG0087): up to 17%
- lifespan in flies lacking or severely decreased in dSir2 (D. melanogaster; dSir2^4.5/dSir2^5.26 or dSir2^17/dSir2^KG00871, 100 μM): failed to extend lifespan
- longevity in flies homozygous for a hypomorphic dSir2 allele (D. melanogaster; dSir2^KG0087/dSir2^KG0087): a small but statistically significant amount
- longevity on restricted diet (D. melanogaster; restricted diet): neither resveratrol nor fisetin further increased longevity
- lifespan extended (maximum) (D. melanogaster; wild type Canton-S and yw, males and females, normal diet): up to 29%

Source: patent US20060276393A1, “Novel compositions for preventing and treating neurodegenerative and blood coagulation disorders” (Sirtris Pharmaceuticals, Inc., priority 2005, published 2006)
